Laboratory results published in patent publication EP1878738A1, “ALLERGY-SUPPRESSIVE COMPOSITION, ALLERGY-SUPPRESSIVE FOOD AND ALLERGY-SUPPRESSIVE AGENT” (priority 2005, dated 2006).
Read-outs that look alike come from different tables or passages of the source.

What was measured:
anti-OVA IgE = assay: Example 2: oral immune tolerance, serum anti-OVA IgE by ELISA in human-flora associated mice; type: in vivo; details: 1-kestose-administered group, 204 without 1-kestose, germfree mice 496
Experimental: (§1) In Example 2, to examine the effect of 1-kestose on the production of IgG1 and IgE, 1-kestose was administered to germfree […] to measure IgG1 and IgE amounts in the serum before and after giving 1-kestose.
(§2) In this Example 2, the mice used in the experiment were male […] with 4 weeks of age born and grown in a germfree condition (BALB/c), with 10 to 15 rats as a group. These mice were orally provided with 0.5ml of a liquid obtained by diluting feces of human infants 100 times and observed in a germfree condition for two weeks. Afterward, 5mg of ovalbumin (OVA) was orally administered to the mice for 4 days. To examine the existence of immune tolerance, a liquid obtained by adding 0.1 mg of aluminum hydroxide gel to 1 µg of OVA was injected into the abdominal cavity, 1, 3, 5 and 7 weeks after orally administering OVA. These human-flora associated mice were separated into 1-kestose-administered group and non-administered control group and anti-OVA IgG1 and anti-OVA IgE in the serum were measured by ELISA method, 9 weeks after administering 1-kestose.

Bifidobacterium [1] = assay: Example 7: clinical test, bifidobacterial occupancy in feces; type: in vivo, human; details: before 30.1 %
Text: (§3) The test subjects were 13 infants with atopic dermatitis and mild and severe eruption (age: 0 to 3 years old) in which food allergic symptoms were accompanied. The test was approved by parents of the subjects.
(§4) In the clinical test, the subjects were kept under observation for 2 weeks and they took 1-kestose with a purity of 98% mixed with water or juice once a day for 12 weeks. The subjects at age 1 or under were provided with 1g of 1-kestose a day and those at age 2 to 3 took 2g of 1-kestose a day. The test subjects used no external preparation of steroid for one month or more before taking 1-kestose. During the test, the subjects were treated mainly with a humectant and took food allergen removing food.
(§5) The subjects were diagnosed at the start of, 6 and 12 weeks after taking 1-kestose, and 4 to 8 weeks after the intake completion to assess the clinical test results (examination of dermis severity and stool samples). The inspection 4 to 8 weeks after the intake completion was aimed at examining drug efficacy sustaining effect. In the stool sample inspection, feces were collected form the subjects to calculate bifidobacterial occupancy in the feces. The eruption severity was examined using Severity Determination Method by Region of Severity Discussion Committee of Japanese Dermatological Association, in which by separating the entire body into 5 regions: head, anterior and posterior parts of the trunk, upper and lower extremities, the sum of comprehensive assessments is calculated in each region (on 0 to 4 scales).

Bifidobacterium [2] = assay: Example 6: effective amount of 1-kestose, Bifidobacterium count in feces; type: in vivo, human; details: for minimal effective dose: Bifidobacterium, po, read-out: effective amount of 1-kestose per 1kg body weight
Text: (§6) According to the results of each above-mentioned Example, it was confirmed that an adult can have the effect of 1-kestose as prebiotics with a daily dose of 3g. […] The subjects were 4 health adult males whose age ranges from 38 to 56. The subject A is 67kg, subject B is 56kg, subject C is 59kg and subject D is 63kg in weight.
In the experiment, feces were first collected from each subject before taking 1-kestose, and counts of Bifidobacterium, Lactobacillus, Clostridium and total bacteria were measured. Then, they took 1g of 1-kestose once a day for 2 weeks. 15 days later, feces were collected from each subject to measure intestinal bacteria. Afterward, they took no 1-kestose for one week. From the 22nd day, they took 3g of 1-kestose once a day for two weeks, and feces were collected from each subject on the 36th day to measure intestinal bacteria. Figure 13 and Figure 14 show the results.

IgA = assay: Example 1: IgA in feces by ELISA before and after taking 1-kestose; type: in vivo, human
Text: (§7) The composition, containing 1-kestose used in this Example 1, is of a 1-kestose purity of 98%, composed of 1-kestose (98 weight %), nystose (1.0 weight %) and sucrose (1.0 weight %). An allergy-suppressive composition, having 1-kestose as an active ingredient, was given to 4 adult males having allergic symptoms, with each dose of 3g for one month. The feces before and after the composition was taken were collected to measure IgA and intestinal bacteria in the feces.
To measure IgA, the collected feces were diluted 20 times with phosphate buffered saline (PBS) and supernatant was collected by a centrifugal separator. Then, the liquid was diluted 10 times with water to make a sample for measurement. Also, an anti-human IgA mouse monoclonal antibody (product of Nacalai Tesque Inc.), and a horseradish peroxidase (HRP)-labeled antibody by labeling the antihuman IgA mouse monoclonal antibody with HRP were prepared. Afterward, IgA was measured using ELISA method.

nonspecific IgE [3] = assay: Example 3: nonspecific IgE in human serum before and after taking 1-kestose; type: in vivo; details: adult with allergic symptoms, 3g for one month, standard value 366
Text: In this Example 3, to examine the effect of 1-kestose on IgE amount in the human serum, the subjects were given 1-kestose to measure nonspecific IgE amount in the serum before and after taking 1-kestose.

[4] = in vivo
Text: The subjects were 2 volunteer patients with allergic symptoms (adult male and female each). They took 3g of 1-kestose for one month and blood components like nonspecific IgE in the serum were examined.

[5] = Volunteer experiment on bowel movement, daily dose 2g; type: in vivo, human; details: daily dose of 2g; volunteer subjects
Text: as §6

[6] = type: in vivo, human; details: many subjects; 1g or 2g a day for 12 weeks
Text: as §4, with “The test subjects were 13 infants with atopic dermatitis and mild and severe eruption (age: 0 to 3 years old) in which food allergic symptoms were accompanied. The test was approved by parents of the subjects. In” for “In”

anti-OVA IgG1 = assay: Example 2: oral immune tolerance, serum anti-OVA IgG1 by ELISA in human-flora associated mice; type: in vivo; details: 1-kestose-administered group, 41 without 1-kestose, germfree mice 1583
Experimental: as §1, §2

Bifidobacterium [7] = assay: Example 4: improvement of enterobacterial flora in germfree mice, proportion of Bifidobacterium; type: in vivo; details: orally administered for 5 days
Text: In this Example 4, the effect of improving the enterobacterial flora of each composition composed of fructooligosaccharide was compared, using germfree mice. The fructooligosaccharide is composed of kestose (trisaccharide), nystose (tetrasaccharide) and F-nystose (pentasaccharide). The kestose used in this Example 4 is composed of 1-kestose (99.0%), nystose (0.5%) and sucrose (0.5%). The nystose is composed of nystose (99.0%), 1-kestose (0.9%) and sucrose (0.1 %). The F-nystose is composed of F-nystose (82.0%), other pentasaccharides (13.0%) and other components (5.0%). Additionally, control groups of mice dosed with sterile water and dosed with usual fructooligosaccharide (1-kestose: 35.8 weight %, nystose: 50.9 weight %, F-nystose: 8.5 weight %) were prepared and their data were obtained for comparison. […] Each oligosaccharide was orally administered to germfree mice for 5 days to determine the proportion of Bifidobacterium proliferated to total bacterial count.

[8] = Example 6: 1-kestose intake with no side effect (diarrhea, organs, blood); set-up: species or system human; details: in vivo
Text: Meanwhile, the 1-kestose intake with no side effect was examined.

Bifidobacterium [9] = assay: Example 1: intestinal bacteria in feces, anaerobic plate culture (Bifidobacterium); type: in vivo, human; details: after 3g for one month
Text: as §7
Meanwhile, to measure intestinal bacteria, a sample liquid for measurement was dripped on a flat-plate agar medium by 0.05ml and applied thereon. After anaerobic culture of the sample at 35°C for 3 to 5 days, the bacteria were identified and bacterial count was found.

nonspecific IgE [10] = assay: Example 5: nonspecific IgE after 1-kestose and after fructooligosaccharide intake; type: in vivo, human
Experimental: In this Example 5, the subjects were 4 adult females (from 27 to 45 years old) with daily allergic symptoms. They took 1-kestose and fructooligosaccharide and nonspecific IgE of each subject was measured. In this experiment, nonspecific IgE before taking the substances was measured and then the subjects took 3g of 1-kestose after eating once a day for 4 weeks. The blood was collected 5 weeks later to measure nonspecific IgE and afterward they took no substances for 2 weeks. Then, the subjects took 3g of fructooligosaccharide after eating once a day for 4 weeks and the blood was collected. The 1-kestose used in this Example 5 has a purity of 95% or more, and the commercially-available fructooligosaccharide is a nystose-dominant oligosaccharide composed of nystose (51 %) and 1-kestose (36%). In the experiment, the subjects took less health foods like prebiotics and probiotics containing other oligosaccharides and Lactobacillus.

[11] = system: infants with atopic dermatitis; assay: Example 7: clinical test in infants with atopic dermatitis, eruption severity; type: in vivo, human
Text: as §3, §4, §5

With OC[C@H]1O[C@@](CO)(OC[C@@]2(O[C@H]3O[C@H](CO)[C@@H](O)[C@H](O)[C@H]3O)O[C@H](CO)[C@@H](O)[C@@H]2O)[C@@H](O)[C@@H]1O [1-kestose] as the molecule, how does the “anti-OVA IgE in the serum” value (anti-OVA IgE) read?
Its value is 156 unit/ml.

And the “mean bifidobacterial occupancy in feces” value (Bifidobacterium [1]; 4 to 8 weeks after completion of 12 weeks intake)?
Its value is 32.7%.

What about the “mean bifidobacterial occupancy in feces” value (Bifidobacterium [1]; 9 subjects, 6 weeks after taking) of the same molecule?
The value was 42.3%.

What about the “mean bifidobacterial occupancy in feces” value (Bifidobacterium [1]; 9 subjects, 12 weeks after taking, p 0.0308 vs start) of the same molecule?
Its value is 56.0%.

What about the minimal effective dose (Bifidobacterium [2]; mean value) of the same molecule?
The minimal effective dose was 16 mg/kg.

And the minimal effective dose (Bifidobacterium [2]; subject A (67kg))?
Its minimal effective dose is 15 mg/kg.

And the minimal effective dose (Bifidobacterium [2]; subject B (56kg))?
The minimal effective dose was 18 mg/kg.

What about the minimal effective dose (Bifidobacterium [2]; subject C (59kg)) of the same molecule?
Its minimal effective dose is 17 mg/kg.

And the minimal effective dose (Bifidobacterium [2]; subject D (63kg))?
Its minimal effective dose is 16 mg/kg.

And the “effective 1-kestose amount” value (Bifidobacterium [2]; adult with a weight of at least 60kg)?
The value was 1 g per day.

What about the “increase of mean IgA concentration in feces” value (IgA; after vs before taking 3g for one month) of the same molecule?
The value was at least 1.7 times.

And the “mean IgA concentration in feces” value (IgA; mean of 4 adult males with allergic symptoms, 3g for one month, 0.61 before taking)?
Its value is 1.06 µg/mL.

And the “increase of IgA concentration in feces” value (IgA; subjects A to C, 3g for one month)?
The value was “twice or more”.

What about the “nonspecific IgE in the serum” value (nonspecific IgE [3]; before 381) of the same molecule?
Its value is 313 IU/ml.

What about the “nonspecific IgE in the serum” value (nonspecific IgE [3]; before 505) of the same molecule?
Its value is 354 IU/ml.

What about the “C-reactive protein (CRP) value” [4] of the same molecule?
Its value is “negative”.

What about the “effect on hepatic functions, other organs and blood components” value [4] of the same molecule?
The value was “no effect on hepatic functions, etc., other organs and blood components”.

What about the “effect on bowel movement” value [5] of the same molecule?
The value was “improving bowel movement”.

What about the bowel movement [6] of the same molecule?
The bowel movement was “improved bowel movement”.

And the “anti-OVA IgG1 in the serum” value (anti-OVA IgG1)?
Its value is 31 unit/ml.

And the “proportion of Bifidobacterium proliferated to total bacterial count” value (shortened to “proportion”) (Bifidobacterium [7])?
The value was 12.59%.

And the 1-kestose intake with no side effect ([8]; human, po)?
The 1-kestose intake with no side effect was at most 400 mg/kg/day.

And the diarrhea [8]?
Its diarrhea is “no diarrhea”.

What about the diarrhea symptoms [8] of the same molecule?
Its diarrhea symptoms is “no diarrhea symptoms”.

And the “effect on organs and blood component” value [8]?
The value was “no effect on organs and blood component”.

And the “mean bifidobacterial occupancy relative to the total bacterial count” value (Bifidobacterium [9]; mean, before 19.97%)?
The value was 43.05%.

What about the “bifidobacterial occupancy relative to the total bacterial count” value (Bifidobacterium [9]; subject A, before 11.67%) of the same molecule?
The value was 52.38%.

And the “bifidobacterial occupancy relative to the total bacterial count” value (Bifidobacterium [9]; subject B, before 38.57%)?
The value was 57.14%.

And the “mean nonspecific IgE” value (nonspecific IgE [10]; mean of 4 adult females, 3g once a day for 4 weeks, before 403.8)?
The value was 298.8 IU/ml.

What about the “decrease in mean nonspecific IgE” value (nonspecific IgE [10]; mean of 4 subjects, vs before taking) of the same molecule?
The value was “approximately 26%”.

What about the “nonspecific IgE” value (nonspecific IgE [10]; subject A, 3g once a day for 4 weeks, before 541) of the same molecule?
Its value is 298 IU/ml.

And the “decrease in nonspecific IgE” value (nonspecific IgE [10]; subject A, vs before taking)?
Its value is “approximately 45%”.

And the “nonspecific IgE” value (nonspecific IgE [10]; subject B, 3g once a day for 4 weeks, before 422)?
Its value is 282 IU/ml.

What about the “decrease in nonspecific IgE” value (nonspecific IgE [10]; subject B, vs before taking) of the same molecule?
The value was at least 32%.

And the “nonspecific IgE” value (nonspecific IgE [10]; subject C as printed, 3g once a day for 4 weeks, before 323)?
The value was 275 IU/ml.

What about the “decrease in nonspecific IgE” value (nonspecific IgE [10]; subject C as printed, vs before taking) of the same molecule?
Its value is “approximately 25%”.

What about the “increase in nonspecific IgE” value (nonspecific IgE [10]; subject C, vs before taking) of the same molecule?
Its value is “about 3%”.

What about the “eruption (dermis severity, Japanese Dermatological Association method by region)” value ([11]; 13 infants 0 to 3 years, 1g or 2g a day for 12 weeks, p 0.0022 start vs 12 weeks, p 0.0025 start vs 4 to 8 weeks after completion) of the same molecule?
The value was “significant improvement in eruption”.

And the “number of subjects with no deterioration or recurrence of eruption” value ([11]; of 11 subjects, 4 to 8 weeks after taking 1-kestose for 12 weeks)?
The value was “Seven”.

What about the “number of subjects who completely removed eruption” value ([11]; of 13 subjects, 4 to 8 weeks after taking 1-kestose for 12 weeks) of the same molecule?
The value was 6.

For OC[C@H]1O[C@@](CO)(OC[C@@]2(OC[C@@]3(OC[C@@]4(O[C@H]5O[C@H](CO)[C@@H](O)[C@H](O)[C@H]5O)O[C@H](CO)[C@@H](O)[C@@H]4O)O[C@H](CO)[C@@H](O)[C@@H]3O)O[C@H](CO)[C@@H](O)[C@@H]2O)[C@@H](O)[C@@H]1O [F-nystose], which “proportion” value (Bifidobacterium [7]) is on record?
Its value is 7.94%.

With OC[C@H]1O[C@@](CO)(OC[C@@]2(OC[C@@]3(O[C@H]4O[C@H](CO)[C@@H](O)[C@H](O)[C@H]4O)O[C@H](CO)[C@@H](O)[C@@H]3O)O[C@H](CO)[C@@H](O)[C@@H]2O)[C@@H](O)[C@@H]1O [nystose] as the molecule, how does the “proportion” value (Bifidobacterium [7]) read?
The value was 7.94%.
